Test results: patent US10000765B2, “Gene encoding cytochrome P450, and use thereof” (NATIONAL INSTITUTE OF AGROBIOLOGICAL SCIENCES, priority 2011, dated 2018)

Tests used:
[1] = system: non-transformed Arabidopsis thaliana (NT); experiment: Drug sensitivity test on drug-containing MS medium, non-transformed Arabidopsis thaliana; assay type: in vivo
Protocol: (§1) A bag of mixed salts for Murashige-Skoog (MS) medium (manufactured by Wako Pure Chemical Industries, Ltd.) 20 g of sucrose, 3 mg of thiamin hydrochloride, 5 mg of nicotinic acid, and 0.5 mg of pyridoxine hydrochloride were dissolved in distilled water, and filled up to 1 L with distilled water. After pH adjustment to 5.8 to 6.3 with 1 M KOH, 3 g of Gelrite was added to the solution, and dissolved using a microwave. After that, the mixture was autoclaved to prepare a sterile MS medium. A test drug was added to this sterile MS medium so as to make a final concentration of 1.3, 4.1, 12, 37, 110, or 330 nM. Arabidopsis thaliana from a sterilized seed was seeded in the drug-containing MS medium, and cultivated at 22° C. for 12 to 14 days in a continuous light period.
(§2) Note that the drugs used in this Example were bispyribac-sodium, pyrithiobac-sodium, pyriminobac, bensulfuron-methyl, penoxsulam, pyrazosulfuron-ethyl, amidosulfuron, imazosulfuron, nicosulfuron, and propyrisulfuron.

[2] = system: Arabidopsis thaliana (K31-4-2) transformed with a Kasalath-derived CYP72A31 gene; experiment: Drug sensitivity test on drug-containing MS medium, Arabidopsis thaliana transformed with Kasalath-derived CYP72A31 gene; assay type: in vivo; conditions: for Rate of emerging of true leaf (%): day 14 after seeding
Protocol: as §1, §2

[3] = system: CYP72A31-overexpressing rice (K31-4-6-2); experiment: Drug sensitivity test on gellan gum medium, CYP72A31-overexpressing rice; assay type: in vivo, Oryza sativa; conditions: for CK ratio (%): plant height compared with drug-free medium
Protocol: (§3) Next, 1.6 g of Hoagland's mix (Sigma-Aldrich Corporation) and 3 g of Gelrite (Wako Pure Chemical Industries, Ltd.) were suspended in 1 L of distilled water. Then, the mixture was dissolved and heated in a microwave. After that, the mixture was cooled to 50 to 60 degree C., and BS was added at a final concentration of 1 μM. This mixture was dispensed into 30-mL tubular bottles at 15 mL to prepare a gellan gum medium. Next, CSSL rice paddies were soaked in 0.5% sodium hypochlorite for about 20 minutes, and were then washed well with water. These paddies were soaked in distilled water, and kept at 27 degree C. for 3 to 5 days for germination. Germinating seeds were softly planted in sprout-side up on the gellan gum medium. These samples, together with a beaker filled with distilled water, were placed in a transparent case, which was then covered with a clear-plastic wrap. These samples were grown at 27 degree C. under fluorescent light illumination (14 hours of a light period and 10 hours of a dark period) for 7 to 9 days.
(§4) According to the method of Example 1, a gellan gum medium containing a test drug at a concentration of 0.01, 0.1, 1, or 10 μM was prepared. Rice seeds were sterilized, germinated, seeded in the medium, and cultivated.

[4] = system: Wild-type rice (Nipponbare); experiment: Drug sensitivity test on gellan gum medium, wild-type rice; assay type: in vivo, Oryza sativa; conditions: plant height compared with drug-free medium
Protocol: as §3, §4

[5] = drug 1.3 nM, day 14 after seeding
[6] = drug 4.1 nM, day 14 after seeding
[7] = drug 12 nM, day 14 after seeding
[8] = drug 37 nM, day 14 after seeding
[9] = drug 110 nM, day 14 after seeding
[10] = drug 330 nM, day 14 after seeding
[11] = K31-4-2, Tables 2 and 3, FIGS. 20 to 24
[12] = maximum drug concentration for 80% or more emerging of true leaves, K31-4-2 / NT, day 14

Structure (SMILES) | Rate of emerging of true leaf (%) [1, 5] [%] | Rate of emerging of true leaf (%) [1, 6] [%] | Rate of emerging of true leaf (%) [1, 7] [%] | Rate of emerging of true leaf (%) [1, 8] [%] | Rate of emerging of true leaf (%) [1, 9] [%] | Rate of emerging of true leaf (%) [1, 10] [%] | Ratio of sensitivity ([2]; in vivo) | Resistance of transformed Arabidopsis thaliana to the drug ([2]; in vivo) | Resistance of transformed Arabidopsis thaliana to the drug [2, 11] | Rate of emerging of true leaf (%) ([2]; K31-4-2, drug 1.3 nM) | Rate of emerging of true leaf (%) ([2]; K31-4-2, drug 4.1 nM) | Rate of emerging of true leaf (%) ([2]; K31-4-2, drug 12 nM) | Rate of emerging of true leaf (%) ([2]; K31-4-2, drug 37 nM) | Rate of emerging of true leaf (%) ([2]; K31-4-2, drug 110 nM) | Rate of emerging of true leaf (%) ([2]; K31-4-2, drug 330 nM) | Ratio of sensitivity [2, 12] | further results
COc1cnc(OC)n2nc(NS(=O)(=O)c3c(OCC(F)F)cccc3C(F)(F)F)nc12 [Penoxsulam, penoxsulam] | 50 | 10 | 0 | 0 | 0 | 0 | >254 | exhibited resistance |  |  |  |  |  |  |  |  | 
CCOC(=O)c1cnn(C)c1S(=O)(=O)NC(=O)Nc1nc(OC)cc(OC)n1 [Pyrazosulfuron-ethyl, pyrazosulfuron-ethyl] | 0 | 0 | 0 | 0 | 0 | 0 |  |  | exhibited resistance | 100 | 100 | 90 | 0 | 0 | 0 | >9 | 
COC(=O)c1ccccc1CS(=O)(=O)NC(=O)Nc1nc(OC)cc(OC)n1 [Bensulfuron-methyl, bensulfuron-methyl] | 30 | 0 | 0 | 0 | 0 | 0 | >28 | exhibited resistance |  |  |  |  |  |  |  |  | 
COc1cc(OC)nc(NC(=O)NS(=O)(=O)c2ncccc2C(=O)N(C)C)n1 [Nicosulfuron, nicosulfuron] | 100 | 100 | 0 | 0 | 0 | 0 |  |  | exhibited resistance | 100 | 100 | 100 | 100 | 100 | 10 | 27 | 
CON=C(C)c1cccc(Oc2nc(OC)cc(OC)n2)c1C(=O)O [Pyriminobac, pyriminobac] | 100 | 90 | 10 | 0 | 0 | 0 |  |  | exhibited resistance | 100 | 100 | 100 | 100 | 100 | 50 | 27 | 
COc1cc(OC)nc(NC(=O)NS(=O)(=O)N(C)S(C)(=O)=O)n1 [Amidosulfuron, amidosulfuron] | 100 | 100 | 0 | 0 | 0 | 0 | 3 | exhibited resistance |  |  |  |  |  |  |  |  | 
CCCc1ccc2nc(Cl)c(S(=O)(=O)NC(=O)Nc3nc(OC)cc(OC)n3)n2n1 [Propyrisulfuron, propyrisulfuron] | 10 | 0 | 0 | 0 | 0 | 0 |  |  | exhibited resistance | 100 | 100 | 100 | 70 | 0 | 0 | >9 | 
CCc1cc(C)cc(CC)c1-c1c(OC(=O)C(C)(C)C)n2n(c1=O)CCOCC2 [Pinoxaden, pinoxaden] |  |  |  |  |  |  |  |  |  |  |  |  |  |  |  |  | Resistance of transformed rice to the drug ([3]; Table 4 and FIG. 25): exhibited resistance; Ratio of sensitivity ([3]; maximum drug concentration for CK ratio of 40% or more, K31-4-6-2 / wild-type rice): 10; CK ratio (%) ([3]; K31-4-6-2, drug 0.01 μM): 95%; CK ratio (%) ([3]; K31-4-6-2, drug 0.1 μM): 48%; CK ratio (%) ([3]; K31-4-6-2, drug 1 μM): 9%; CK ratio (%) ([3]; K31-4-6-2, drug 10 μM): 3%; CK ratio (%) ([4]; drug 0.01 μM): 59%; CK ratio (%) ([4]; drug 0.1 μM): 3%; CK ratio (%) ([4]; drug 1 μM): 3%; CK ratio (%) ([4]; drug 10 μM): 3%
COc1cc(OC)nc(NC(=O)NS(=O)(=O)c2c(Cl)nc3ccccn23)n1 [Imazosulfuron, imazosulfuron] | 40 | 10 | 0 | 0 | 0 | 0 |  |  | exhibited resistance | 100 | 100 | 100 | 100 | 90 | 0 | >85 | 
COc1cc(OC)nc(Sc2cccc(Cl)c2C(=O)O)n1 [Pyrithiobac-sodium, pyrithiobac-sodium] |  |  |  |  |  |  | 3 | exhibited resistance |  |  |  |  |  |  |  |  | Rate of emerging of true leaf (%) ([1]; drug 1.3 nM, day 12 after seeding): 44%; Rate of emerging of true leaf (%) ([1]; drug 4.1 nM, day 12 after seeding): 44%; Rate of emerging of true leaf (%) ([1]; drug 12 nM, day 12 after seeding): 0%; Rate of emerging of true leaf (%) ([1]; drug 37 nM, day 12 after seeding): 0%; Rate of emerging of true leaf (%) ([1]; drug 110 nM, day 12 after seeding): 0%; Rate of emerging of true leaf (%) ([1]; drug 330 nM, day 12 after seeding): 0%
